± gives the expanded uncertainty stated by the source.
How the values were obtained:
[1] = xn = mol fraction of the nth substance listed; settings: x1 = 0.613; for surface tension liquid-gas: surface light scattering; for kinematic viscosity / mass density: Liquid; for kinematic viscosity: Surface Light Scattering; for mass density: Vibrating tube method
[2] = for surface tension liquid-gas: surface light scattering; for kinematic viscosity / mass density: Liquid; for kinematic viscosity: Surface laser light scattering (SLLS); for mass density: Vibrating tube method

CCOC(F)(F)C(F)(C(F)(F)F)C(F)(F)F [nonafluoroisobutyl ethyl ether] + CCOC(F)(F)C(F)(F)C(F)(F)C(F)(F)F
surface tension liquid-gas ([1]; 273.15 K): 16.03 ± 0.65 mN/m | kinematic viscosity ([1]; 273.15 K): 6.63e-07 ± 1.8e-08 m2/s | mass density ([1]; 273.15 K): 1478.05 ± 0.89 kg/m3 | mass density ([1]; 278.15 K): 1467.14 ± 0.88 kg/m3 | surface tension liquid-gas ([1]; 283.15 K): 14.9 ± 0.6 mN/m | kinematic viscosity ([1]; 283.15 K): 5.56e-07 ± 1.6e-08 m2/s | mass density ([1]; 283.15 K): 1456.15 ± 0.87 kg/m3 | mass density ([1]; 288.15 K): 1445.07 ± 0.86 kg/m3 | surface tension liquid-gas ([1]; 293.15 K): 14.01 ± 0.56 mN/m | kinematic viscosity ([1]; 293.15 K): 4.82e-07 ± 1.5e-08 m2/s | mass density ([1]; 293.15 K): 1433.94 ± 0.85 kg/m3 | mass density ([1]; 298.15 K): 1422.65 ± 0.84 kg/m3 | surface tension liquid-gas ([1]; 303.15 K): 13.21 ± 0.53 mN/m | kinematic viscosity ([1]; 303.15 K): 4.29e-07 ± 1.3e-08 m2/s | mass density ([1]; 303.15 K): 1411.31 ± 0.83 kg/m3 | mass density ([1]; 308.15 K): 1399.85 ± 0.82 kg/m3 | surface tension liquid-gas ([1]; 313.15 K): 12.33 ± 0.5 mN/m | kinematic viscosity ([1]; 313.15 K): 3.82e-07 ± 1.3e-08 m2/s | mass density ([1]; 313.15 K): 1388.27 ± 0.81 kg/m3 | mass density ([1]; 318.15 K): 1376.56 ± 0.8 kg/m3 | surface tension liquid-gas ([1]; 323.15 K): 11.42 ± 0.46 mN/m | kinematic viscosity ([1]; 323.15 K): 3.43e-07 ± 1.2e-08 m2/s | mass density ([1]; 323.15 K): 1364.66 ± 0.79 kg/m3 | mass density ([1]; 328.15 K): 1352.68 ± 0.78 kg/m3 | surface tension liquid-gas ([1]; 333.15 K): 10.56 ± 0.43 mN/m | kinematic viscosity ([1]; 333.15 K): 3.13e-07 ± 1.1e-08 m2/s | mass density ([1]; 333.15 K): 1340.45 ± 0.77 kg/m3 | mass density ([1]; 338.15 K): 1328.09 ± 0.75 kg/m3 | surface tension liquid-gas ([1]; 343.15 K): 9.67 ± 0.39 mN/m | kinematic viscosity ([1]; 343.15 K): 2.83e-07 ± 1.1e-08 m2/s | mass density ([1]; 343.15 K): 1315.57 ± 0.74 kg/m3 | mass density ([1]; 348.15 K): 1302.85 ± 0.73 kg/m3 | surface tension liquid-gas ([1]; 353.15 K): 8.84 ± 0.36 mN/m | kinematic viscosity ([1]; 353.15 K): 2.56e-07 ± 1e-08 m2/s | mass density ([1]; 353.15 K): 1289.93 ± 0.72 kg/m3 | mass density ([1]; 358.15 K): 1276.74 ± 0.71 kg/m3 | surface tension liquid-gas ([1]; 363.15 K): 7.99 ± 0.32 mN/m | kinematic viscosity ([1]; 363.15 K): 2.38e-07 ± 1e-08 m2/s | mass density ([1]; 363.15 K): 1263.25 ± 0.7 kg/m3 | surface tension liquid-gas ([1]; 373.15 K): 7.19 ± 0.29 mN/m | kinematic viscosity ([1]; 373.15 K): 2.22e-07 ± 9.8e-09 m2/s

COC(F)(F)C(F)(F)C(F)(F)F [heptafluoropropyl methyl ether]
surface tension liquid-gas ([2]; 273.15 K): 14.49 ± 0.58 mN/m | kinematic viscosity ([2]; 273.15 K): 4.22e-07 ± 1.3e-08 m2/s | mass density ([2]; 273.15 K): 1471.16 ± 0.42 kg/m3 | mass density ([2]; 278.15 K): 1458.15 ± 0.41 kg/m3 | surface tension liquid-gas ([2]; 283.15 K): 13.31 ± 0.53 mN/m | kinematic viscosity ([2]; 283.15 K): 3.65e-07 ± 1.2e-08 m2/s | mass density ([2]; 283.15 K): 1444.94 ± 0.41 kg/m3 | mass density ([2]; 288.15 K): 1431.58 ± 0.4 kg/m3 | surface tension liquid-gas ([2]; 293.15 K): 12.33 ± 0.49 mN/m | kinematic viscosity ([2]; 293.15 K): 3.3e-07 ± 1.2e-08 m2/s | mass density ([2]; 293.15 K): 1418.04 ± 0.4 kg/m3 | mass density ([2]; 298.15 K): 1404.3 ± 0.39 kg/m3 | surface tension liquid-gas ([2]; 303.15 K): 11.23 ± 0.45 mN/m | kinematic viscosity ([2]; 303.15 K): 2.9e-07 ± 1.1e-08 m2/s | mass density ([2]; 303.15 K): 1390.35 ± 0.38 kg/m3 | mass density ([2]; 308.15 K): 1376.15 ± 0.38 kg/m3 | surface tension liquid-gas ([2]; 313.15 K): 10.27 ± 0.41 mN/m | kinematic viscosity ([2]; 313.15 K): 2.64e-07 ± 1e-08 m2/s | mass density ([2]; 313.15 K): 1361.67 ± 0.37 kg/m3 | mass density ([2]; 318.15 K): 1346.91 ± 0.36 kg/m3 | surface tension liquid-gas ([2]; 323.15 K): 9.23 ± 0.37 mN/m | kinematic viscosity ([2]; 323.15 K): 2.37e-07 ± 1e-08 m2/s | mass density ([2]; 323.15 K): 1331.89 ± 0.36 kg/m3 | mass density ([2]; 328.15 K): 1316.54 ± 0.35 kg/m3 | surface tension liquid-gas ([2]; 333.15 K): 8.28 ± 0.33 mN/m | kinematic viscosity ([2]; 333.15 K): 2.2e-07 ± 9.7e-09 m2/s | mass density ([2]; 333.15 K): 1300.86 ± 0.34 kg/m3 | mass density ([2]; 338.15 K): 1284.82 ± 0.34 kg/m3 | surface tension liquid-gas ([2]; 343.15 K): 7.36 ± 0.3 mN/m | kinematic viscosity ([2]; 343.15 K): 2.01e-07 ± 9.4e-09 m2/s | mass density ([2]; 343.15 K): 1268.38 ± 0.33 kg/m3 | mass density ([2]; 348.15 K): 1251.45 ± 0.32 kg/m3 | surface tension liquid-gas ([2]; 353.15 K): 6.38 ± 0.26 mN/m | kinematic viscosity ([2]; 353.15 K): 1.8e-07 ± 9.2e-09 m2/s | mass density ([2]; 353.15 K): 1234.05 ± 0.31 kg/m3 | mass density ([2]; 358.15 K): 1216.87 ± 0.31 kg/m3 | surface tension liquid-gas ([2]; 363.15 K): 5.48 ± 0.22 mN/m | kinematic viscosity ([2]; 363.15 K): 1.66e-07 ± 9e-09 m2/s | mass density ([2]; 363.15 K): 1199.54 ± 0.3 kg/m3 | surface tension liquid-gas ([2]; 373.15 K): 4.62 ± 0.19 mN/m | kinematic viscosity ([2]; 373.15 K): 1.53e-07 ± 8.9e-09 m2/s

CCOC(F)(C(F)(F)C(F)(F)C(F)(F)F)C(F)(C(F)(F)F)C(F)(F)F (stereo not drawn) [2-trifluoromethyl-3-ethoxydodecafluorohexane]
surface tension liquid-gas ([2]; 273.15 K): 16.92 ± 0.68 mN/m | kinematic viscosity ([2]; 273.15 K): 1.14e-06 ± 2.8e-08 m2/s | mass density ([2]; 273.15 K): 1670.6 ± 33 kg/m3 | mass density ([2]; 278.15 K): 1660.59 ± 33 kg/m3 | surface tension liquid-gas ([2]; 283.15 K): 16.23 ± 0.65 mN/m | kinematic viscosity ([2]; 283.15 K): 9.38e-07 ± 2.4e-08 m2/s | mass density ([2]; 283.15 K): 1650.49 ± 33 kg/m3 | mass density ([2]; 288.15 K): 1640.35 ± 33 kg/m3 | surface tension liquid-gas ([2]; 293.15 K): 15.52 ± 0.63 mN/m | kinematic viscosity ([2]; 293.15 K): 8.04e-07 ± 2.1e-08 m2/s | mass density ([2]; 293.15 K): 1630.17 ± 33 kg/m3 | mass density ([2]; 298.15 K): 1619.92 ± 32 kg/m3 | surface tension liquid-gas ([2]; 303.15 K): 14.75 ± 0.59 mN/m | kinematic viscosity ([2]; 303.15 K): 6.91e-07 ± 1.9e-08 m2/s | mass density ([2]; 303.15 K): 1609.61 ± 32 kg/m3 | mass density ([2]; 308.15 K): 1599.24 ± 32 kg/m3 | surface tension liquid-gas ([2]; 313.15 K): 14.07 ± 0.57 mN/m | kinematic viscosity ([2]; 313.15 K): 6.11e-07 ± 1.7e-08 m2/s | mass density ([2]; 313.15 K): 1588.77 ± 32 kg/m3 | mass density ([2]; 318.15 K): 1578.28 ± 32 kg/m3 | surface tension liquid-gas ([2]; 323.15 K): 13.3 ± 0.54 mN/m | kinematic viscosity ([2]; 323.15 K): 5.38e-07 ± 1.5e-08 m2/s | mass density ([2]; 323.15 K): 1567.69 ± 31 kg/m3 | mass density ([2]; 328.15 K): 1557 ± 31 kg/m3 | surface tension liquid-gas ([2]; 333.15 K): 12.65 ± 0.51 mN/m | kinematic viscosity ([2]; 333.15 K): 4.71e-07 ± 1.4e-08 m2/s | mass density ([2]; 333.15 K): 1546.2 ± 31 kg/m3 | mass density ([2]; 338.15 K): 1535.3 ± 31 kg/m3 | surface tension liquid-gas ([2]; 343.15 K): 11.89 ± 0.48 mN/m | kinematic viscosity ([2]; 343.15 K): 4.28e-07 ± 1.3e-08 m2/s | mass density ([2]; 343.15 K): 1524.31 ± 30 kg/m3 | mass density ([2]; 348.15 K): 1513.21 ± 30 kg/m3 | surface tension liquid-gas ([2]; 353.15 K): 11.13 ± 0.45 mN/m | kinematic viscosity ([2]; 353.15 K): 3.88e-07 ± 1.3e-08 m2/s | mass density ([2]; 353.15 K): 1501.99 ± 30 kg/m3 | mass density ([2]; 358.15 K): 1490.64 ± 30 kg/m3 | surface tension liquid-gas ([2]; 363.15 K): 10.4 ± 0.42 mN/m | kinematic viscosity ([2]; 363.15 K): 3.52e-07 ± 1.2e-08 m2/s | mass density ([2]; 363.15 K): 1479.16 ± 30 kg/m3 | surface tension liquid-gas ([2]; 373.15 K): 9.66 ± 0.39 mN/m | kinematic viscosity ([2]; 373.15 K): 3.17e-07 ± 1.1e-08 m2/s

— the NIST ThermoML archive (doi:10.1021/acs.jced.5b00691)
